Measurements published in article PMC4058522, “Structural Basis for Phosphorylation-Dependent Recruitment of Tel2 to Hsp90 by Pih1” (Structure(London, England:1993), 2014).
“And” between values parts separate entries of the source, which are not always exact repeats. Identical values can stand only once. Square brackets hold non-standard residues; d marks the D form. Peptide text beside a SMILES is read from it. pS = N[C@@H](COP(=O)(O)O)C(=O)O

Key:
yeast Hsp90 = assay: ITC, binding of Tah1 or Tah1-Pih1 complex to Hsp90 dimer; details: for Kd: 10 mM Tris pH 7.5, 5 mM NaCl, 600 μM Tah1 into 40 μM yeast Hsp90, or 301 μM yeast Hsp90 into 25 μM yeast Tah1-Pih1 complex; for N (sites) / ΔH / ΔS: same titrations as KD
Experimental: (§1) Heat of interaction was measured on an ITC200 microcalorimeter (Microcal) under the same buffer conditions (20 mM Tris, pH 7.5, containing 5 mM NaCl). Aliquots of the Tel2 peptides at 350 μM were injected into 30 μM of Pih1 at 30°C. Interactions with Tah1 or Spagh/RPAP3^120–395 were performed in 10 mM Tris pH 7.5 and 5 mM NaCl at 10°C and 30°C. Aliquots of 600 μM Tah1 were injected into 40 μM of yeast Hsp90, 400 μM of SRMEEVD injected into 30 μM Tah1, 301 μM yeast Hsp90 injected into 25 μM yeast Tah1-Pih1 complex, and 400 μM SRMEEVD injected into 30 μM yeast Tah1-Pih1 complex. For Spagh/RPAP3^120–395 experiments, aliquots of 500 μM yeast Hsp90 were injected into 20 μM Spagh/RPAP3^120–395 or 2 mM […] into 80 μM Spagh/RPAP3^120–395 or mutants (N172E, N321E, and N172E-N321E). Heats of dilution were determined by diluting injectant into buffer. Data were fitted using a curve-fitting algorithm (Microcal Origin). ATPase assays were previously described ([Prodromou et al., 1999]).

mouse Pih1-PIH domain = biological target: T1, mouse Pih1-PIH domain (Mus musculus, UniProt Q9CQJ2); assay: ITC, phosphopeptide binding to Pih1 PIH domain; details: 30°C; for Kd: 20 mM Tris pH 7.5, 5 mM NaCl, peptides at 350 μM injected into 30 μM Pih1
T1 construct: We determined the crystal structure of the mouse PIH domain^1–200; His (N); made in house
T1 sequence (Q9CQJ2 1-200): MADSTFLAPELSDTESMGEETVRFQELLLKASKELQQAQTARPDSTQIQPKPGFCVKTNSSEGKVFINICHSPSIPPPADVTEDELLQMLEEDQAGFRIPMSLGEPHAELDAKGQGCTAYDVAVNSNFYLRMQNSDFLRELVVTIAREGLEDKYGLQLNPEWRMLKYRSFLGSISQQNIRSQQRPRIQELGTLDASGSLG
Experimental: as §1

Tah1-Pih1 complex: pre-assembled full-length yeast Tah1-Pih1 complex
Kd (yeast Hsp90): 4 µM | N (sites) (yeast Hsp90): 0.93 ± 0.04 sites | ΔH (yeast Hsp90): -7.595 ± 0.404 kcal/mol | ΔS (yeast Hsp90): -0.367 cal/mol/deg

CC(C)C[C@H](NC(=O)[C@H](CCC(=O)O)NC(=O)[C@H](CO)NC(=O)[C@H](CC(=O)O)NC(=O)[C@H](COP(=O)(O)O)NC(=O)CNC(=O)[C@@H](N)CCC(N)=O)C(=O)N[C@@H](CC(=O)O)C(=O)N[C@@H](CO)C(=O)N[C@@H](CC(=O)O)C(=O)N[C@@H](CC(=O)O)C(=O)N[C@@H](CCC(=O)O)C(=O)N[C@@H](Cc1ccccc1)C(=O)O [pS486-Tel2]
Kd (mouse Pih1-PIH domain): 115 µM and > 100 µM

CC(C)C[C@H](NC(=O)[C@H](CCC(=O)O)NC(=O)[C@H](COP(=O)(O)O)NC(=O)[C@H](CC(=O)O)NC(=O)[C@H](CO)NC(=O)CNC(=O)[C@@H](N)CCC(N)=O)C(=O)N[C@@H](CC(=O)O)C(=O)N[C@@H](COP(=O)(O)O)C(=O)N[C@@H](CC(=O)O)C(=O)N[C@@H](CC(=O)O)C(=O)N[C@@H](CCC(=O)O)C(=O)N[C@@H](Cc1ccccc1)C(=O)O [pS488,pS492-Tel2]
Kd (mouse Pih1-PIH domain): 0.17 µM

CC(C)C[C@H](NC(=O)[C@H](CCC(=O)O)NC(=O)[C@H](CO)NC(=O)[C@H](CC(=O)O)NC(=O)[C@H](CO)NC(=O)CNC(=O)[C@@H](N)CCC(N)=O)C(=O)N[C@@H](CC(=O)O)C(=O)N[C@@H](COP(=O)(O)O)C(=O)N[C@@H](CC(=O)O)C(=O)N[C@@H](CC(=O)O)C(=O)N[C@@H](CCC(=O)O)C(=O)N[C@@H](Cc1ccccc1)C(=O)O [pS492-Tel2]
Kd (mouse Pih1-PIH domain): 0.39 µM

Tah1: yeast TPR-domain protein, Hsp90 cochaperone of the R2TP complex
Kd (yeast Hsp90): 5.9 µM | N (sites) (yeast Hsp90): 0.68 ± 0.01 sites | ΔH (yeast Hsp90): -8.445 ± 0.1642 kcal/mol | ΔS (yeast Hsp90): -3.95 cal/mol/deg

CC[C@H](C)[C@H](NC(=O)[C@H](CO)NC(=O)[C@H](CC(=O)O)NC(=O)[C@H](CC(=O)O)NC(=O)[C@H](COP(=O)(O)O)NC(=O)[C@H](CC(=O)O)NC(=O)[C@H](CC(N)=O)NC(=O)[C@H](C)NC(=O)[C@@H](N)CCSC)C(=O)O [Mre11 phosphoserine peptide] (H-MAND[pS]DDSI-OH; N-terminus and C-terminus assumed)
ΔH (mouse Pih1-PIH domain): -7.313 ± 0.3547 kcal/mol | ΔS (mouse Pih1-PIH domain): -0.36 cal/mol/deg | N (mouse Pih1-PIH domain; fitted): 0.76 ± 0.03 sites

CC(C)C[C@H](NC(=O)[C@H](CCC(=O)O)NC(=O)[C@H](COP(=O)(O)O)NC(=O)[C@H](CC(=O)O)NC(=O)[C@H](CO)NC(=O)CNC(=O)[C@@H](N)CCC(N)=O)C(=O)N[C@@H](CC(=O)O)C(=O)N[C@@H](CO)C(=O)N[C@@H](CC(=O)O)C(=O)N[C@@H](CC(=O)O)C(=O)N[C@@H](CCC(=O)O)C(=O)N[C@@H](Cc1ccccc1)C(=O)O [pS488-Tel2]
Kd (mouse Pih1-PIH domain): 15.3 µM

CC(C)C[C@H](NC(=O)[C@H](CCC(=O)O)NC(=O)[C@H](COP(=O)(O)O)NC(=O)[C@H](CC(=O)O)NC(=O)[C@H](COP(=O)(O)O)NC(=O)CNC(=O)[C@@H](N)CCC(N)=O)C(=O)N[C@@H](CC(=O)O)C(=O)N[C@@H](CO)C(=O)N[C@@H](CC(=O)O)C(=O)N[C@@H](CC(=O)O)C(=O)N[C@@H](CCC(=O)O)C(=O)N[C@@H](Cc1ccccc1)C(=O)O [pS486, pS488-Tel2]
Kd (mouse Pih1-PIH domain): 37.9 µM
